The values below come from patent US20050038058A1, “Novel compounds and methods for therapy” (Institute of Organic Chemistry and Biochemistry, priority 2001, published 2005).

Data set [1] relates to MSV. Description: MSV-induced transformation of murine embryo fibroblast C3H/3T3 cell cultures. Format: cell-based. Particulars: MSV-induced C3H cell transformation, Table 2. The protocol:
The inhibitory effect of the test compounds on MSV-induced transformation of murine embryo fibroblast C3H/3T3 cell cultures was examined microscopically at day 6 post infection. MSV was added at 75 focus-forming units to the cell cultures. The detailed procedures for the antiretroviral evaluations has been described in detail before (Balzarini et al., AIDS 5:21-28, 1991; Balzarini et al., Antimicrob. Agents Chemother. 37:332-338, 1993; De Clercq et al., Proc. Soc. Exp. Biol. Med. 137:590-594, 1971).

Data set [2] relates to C3H cells. Description: Alteration of C3H cell morphology (minimal inhibitory concentration). The class given is cell-based, murine. The settings on record: for CC50 C3H (minimal inhibitory concentration): microscopically visible alteration of cell morphology, > means no visible toxicity at the indicated concentration; for Compound concentration at which morphological toxicity was observed, C3H (value between parentheses): Table 2, footnote c.

The subject of data set [3] is FIV (strain Petaluma). Description: Anti-FIV assay, p24 antigen in CrFK cells. The class given is cell-based. The settings on record: Table 2. The protocol:
For the anti-FIV assays, 10^5 CrFK cells were seeded onto 24-well tissue culture plates. Cells were cultured with 2 ml of culture medium/well containing 2.5% of fetal calf serum in the presence of various drug concentrations. The assays were carried out in triplicate. After a 1-hr incubation period at 37° C., cells were infected with FIV. Virus was left in contact with the cultures for 1 day, after which the medium was removed and new medium containing the appropriate drug concentrations was added. After 6 days, the presence of FIV p24 antigen was examined by an antigen capture assay.

Data set [4] concerns HIV-2(ROD). Description: HIV-2(ROD)-induced cytopathicity in CEM cell cultures. Format: cell-based. Particulars: giant cell formation, Table 2. An excerpt: (§1) Viruses. The origins of MSV, HIV type 1 (HIV-1) (strain IIIB and Ba-L), HIV-2 (strain ROD) and FIV (strain Petaluma) have been described previously (Balzarini et al., AIDS 5: 21-28, 1991; De Clercq et al., Proc. Soc. Exp. Biol. Med. 137:590-594, 1971; Egberink et al., Proc. Natl. Acad. Sci. 87:3087-3091, 1990; Hartmann et al., Antiviral Chem. Chemother. 5:13-19, 1994; Popovic et al., Science 224:497-500, 1984). HIV-1(IIIB) and HIV-2(ROD) stocks were obtained from supernatants of virus-infected MT-4 cell cultures. HIV-1BaL was expanded in human primary M/M, whose supernatants were collected, filtered and stored at −80° C. before use. Characteristics of viral stocks used for this study were 2.1×10^8 HIV-RNA genomes/ml (corresponding to 35 ng of p24 antigen) and 5,000 tissue culture infectious doses 50% per ml (TCID50/ml) as assessed by virus titration in other primary M/M cultures. The isolation and characterization of the clinical HIV-1 isolates L1S, L6S and L6S/PMEA has been reported (Thormar et al., Proc. Natl. Acad. Sci. USA 93:3283-3287, 1995; Van Laethem et al., AIDS 15:553-561, 2001). […] HIV-1/L6S/PMEA is the clinical isolate HIV-1/L6S that has been isolated after culturing the virus for 11 passages in the presence of increasing concentrations of PMEA (adefovir).
(§2) In vitro antiviral assays. The activity against HIV-1- and HIV-2-induced cytopathicity was examined in MT-4 cell cultures at day 5 post infection and based on the determination of cell viability by trypan blue dye staining or in CEM cell cultures at day 4 to 5 post infection and based on the microscopical examination of virus-induced giant cell formation. HIV-1 and HIV-2 were added at 100 CCID50 to the cell cultures.

Data set [5] has as its system HIV-2(ROD). Description: HIV-2(ROD)-induced cytopathicity in MT-4 cell cultures. The class given is cell-based. The settings on record: Table 2.
Text: as §1, §2

Data set [6] has as its system HIV-1(IIIB). Description: HIV-1(IIIB) p24 antigen production in PBL (PHA-stimulated PBMC). The settings on record: for EC50: Human immunodeficiency virus 1, IIIB, PBMC. Format: cell-based. The protocol:
Peripheral blood mononuclear cells (PBMC) from healthy donors were isolated by density centrifugation (Lymphoprep; Nycomed Pharma, AS Diagnostics, Oslo, Norway) and stimulated with phytohemagglutin (PHA) (Sigma Chemical Co., Bornem, Belgium) for 3 days. The activated cells (PHA-stimulated blasts) were washed with PBS and viral infections were done as described by the AIDS clinical trial group protocols. Briefly, PBMCs (2×10^5/200 well) were plated in the presence of serial dilutions of the test compound and were infected with HIV stocks at 1000 CCID50 per mL. At day 4 post-infection, 125 μl of the supernatant of the infected cultures was removed and replaced with 150 μl of fresh medium containing the test compounds at the appropriate concentrations. At 7 days after plating the cells, p24 antigen was detected in the culture supernatant by an enzyme-linked immunosorbent assay (NEN, Paris, France).

The test system of data set [7] is MSV. The class given is in vivo. The settings on record: for Number of Mice not Developing a Tumor (percent): intraperitoneal, 5 daily doses, newborn NMRI mice.
Data set [8] deals with HIV-1(IIIB). Description: HIV-1(IIIB)-induced cytopathicity in MT-4 cell cultures. The class given is cell-based. The settings on record: Table 2.
Text: as §1, §2
For orientation: Cytopathic effects are the visible damage that an infection or toxin causes in cultured cells.

Data set [9] deals with HIV-1(IIIB) strains containing L100I, K103N, Y181C and Y188H mutations in the RT. Description: HIV-1(IIIB) strains with NNRTI-specific RT mutations in CEM cell cultures. Format: cell-based. The settings on record: data not shown. The protocol:
as §2

A short description of data set [10]: Toxicity in CrFK cells. Format: cell-based, feline. The settings on record: cat; Table 2.
Data set [11] can be described thus: Alteration of C3H cell morphology (minimal inhibitory concentration). Format: cell-based, murine. The settings on record: mouse; microscopically visible alteration of cell morphology; > means no visible toxicity at the indicated concentration; read-out: CC50 C3H (minimal inhibitory concentration).
The nature of data set [12]: MT-4 cell toxicity (trypan blue exclusion). Format: cell-based. The settings on record: human; reduction of cell viability; Table 2. The protocol: (§3) Cytostatic and antimetabolic effect of acyclic nucleoside phosphonates in vitro. The assays to examine the inhibition of CEM cell growth by the test compounds have been described previously (Balzarini et al., AIDS 5:21-28, 1991). The 50% cytostatic concentration (CC50) was defined as the concentration of compound that reduced the number of living cells by 50% . To measure MT-4 cell toxicity of the test compounds, 5×10^4 MT-4 cells were incubated in the wells of 96-well microplates in the presence or absence of different concentrations of the test compounds for 5 days at 37° C. The CC50 was then calculated from the number of living cells counted under a microscope by the trypan blue exclusion method.

Data set [13] is described as follows: Inhibition of CEM cell growth (cytostatic activity). The class given is cell-based. Particulars: human; 50% cytostatic concentration, CEM cell proliferation; Table 1; read-out: CC50 (CEM). The protocol:
as §3

Setting [14] is: 20 mg/kg, premature death not taken into account.

Converted amounts (≈) assume the structure as drawn. Like-named read-outs stand apart in the source and are kept apart here. Marks after values point to notes of the source that are not given here. A value given as a limit tells only on which side of the number the result lay.

Consider `C[C@H](Cn1cnc2c(N)ncnc21)OCP(=O)(O)O` [(R)-PMPA, (R)-9-[(2-phosphonomethoxy)-propyl]adenine, reference compound], for which the “EC50 MSV (C3H)” value in [1] was 1.4 ± 0.9 µg/mL (≈ 4.87 µM). In data set [2], the “CC50 C3H (minimal inhibitory concentration)” value was above 200 µg/mL. The “EC50 FIV (CrFK)” value in [3] is 0.13 µg/mL (≈ 0.453 µM). The “EC50 HIV-2 (ROD) (CEM)” value in [4] came out at 0.43 ± 0.41 µg/mL (≈ 1.5 µM). Also, the “EC50 HIV-2 (ROD) (MT-4)” value in data set [5] is 0.52 µg/mL (≈ 1.81 µM). Also, the “EC50 HIV-1(IIIB) in PBL” value in data set [6] is 0.33 µg/mL (≈ 1.15 µM). The “EC50 HIV-1 (IIIB) (PBL)” value in data set [6] (p24 antigen production, Table 2) worked out at 0.09 ± 0.03 µg/mL (≈ 0.313 µM). Besides, the “Number of Long-Term Survivors (%) (>30 days)” value (shortened to “Number … (%) (>30 days)”) in data set [7] (2 mg/kg) is reported as 31%; in data set [7] (8 mg/kg), 83%; in [7] (setting [14]) it was 100%; in data set [7] (50 mg/kg, premature death not taken into account), 100%. Further, the “Number of Mice not Developing a Tumor (percent)” value in [7] (2 mg/kg) was 0%; in data set [7] (8 mg/kg), 65%; in [7] (20 mg/kg) it was 92%; in data set [7] (50 mg/kg), 100%. Moreover, the “EC50 HIV-1 (IIIB) (MT-4)” value in data set [8] turned out to be 0.46 ± 0.006 µg/mL (≈ 1.6 µM).
With `C[C@H](COc1cc(N)nc(N)n1)OCP(=O)(O)O` [Compound 11, 2,4-diamino-6-(R)-[2-(phosphonomethoxy)propoxy]pyrimidine], in [1], the “EC50 MSV (C3H)” value was determined as 0.05 ± 0.01 µg/mL (≈ 0.18 µM). Further, the “Compound concentration at which morphological toxicity was observed, C3H (value between parentheses)” value in data set [2] stood at 200 μg/ml. The “CC50 C3H (minimal inhibitory concentration)” value in data set [2] was above 40 µg/mL. Besides, the “EC50 FIV (CrFK)” value in data set [3] was determined as 0.66 ± 0.14 µg/mL (≈ 2.37 µM). Moreover, in data set [4], the “EC50 HIV-2 (ROD) (CEM)” value came out at 1.3 ± 0.4 µg/mL (≈ 4.67 µM). Moreover, the “EC50 HIV-2 (ROD) (MT-4)” value in [5] came out at 1.6 ± 0.6 µg/mL (≈ 5.75 µM). For the same molecule, in data set [6], the “EC50 HIV-1(IIIB) in PBL” value was found to be 0.12 µg/mL (≈ 0.431 µM). Further, the entries for the “Number … (%) (>30 days)” value in [7] (2 mg/kg), in data set [7] (8 mg/kg) and in data set [7] (setting [14]) were 5%, 40% and 40^c %, respectively. For the same molecule, the figures for the “Number of Mice not Developing a Tumor (percent)” value in [7] (2 mg/kg), in [7] (8 mg/kg) and in data set [7] (20 mg/kg) were 0%, 15% and 20%, respectively. The “Activity against NNRTI-specific mutant virus strains, in words” value in data set [9] is “retained full activity”. Also, in data set [8], the “EC50 HIV-1 (IIIB) (MT-4)” value worked out at 3.0 ± 0.4 µg/mL (≈ 10.8 µM).
For `Nc1ncnc2c1ncn2CCOCP(=O)(O)O` [PMEA, 9-[(2-phosphono-methoxy)ethyl]adenine, reference compound], the CC50 (commonly the concentration that lowers cell viability or growth by half) worked out at 18 µg/mL (≈ 65.9 µM) in data set [10] and 16 µg/mL (≈ 58.6 µM) in [13]. In addition, the EC50 – broadly, the concentration that produces a half-maximal response – amounted to 0.62 ± 0.27 µg/mL (≈ 2.27 µM) in data set [1] (Mus musculus, read-out: EC50 MSV (C3H)); 0.46 ± 0.19 µg/mL (≈ 1.68 µM) in data set [3] (Feline immunodeficiency virus, CRFK); 1.9 ± 1.1 µg/mL (≈ 6.95 µM) in data set [4] (Human immunodeficiency virus 2, CCRF-CEM, read-out: EC50 HIV-2 (ROD) (CEM)); 1.9 µg/mL (≈ 6.95 µM) in [5] (Human immunodeficiency virus 2, MT4, read-out: EC50 HIV-2 (ROD) (MT-4)); 0.55 ± 0.41 µg/mL (≈ 2.01 µM) in data set [6] (p24 antigen production, Table 2, read-out: EC50 HIV-1 (IIIB) (PBL)); 1.9 µg/mL (≈ 6.95 µM) in data set [6] (read-out: EC50 HIV-1(IIIB) in PBL). Besides, in data set [8] (Human immunodeficiency virus 1, IIIB, MT4), a half-maximal effect (EC50) was put at 1.3 ± 1.1 µg/mL (≈ 4.76 µM). Moreover, in data set [2], the “Compound concentration at which morphological toxicity was observed, C3H (value between parentheses)” value is given as 200 μg/ml. Further, the Minimal concentration causing visible cell morphology alteration in data set [11] is above 40 µg/mL. In data set [12], this molecule yielded a CC50 at 5 days of 28 ± 12 µg/mL (≈ 102 µM). In addition, the “Number … (%) (>30 days)” value turned out to be 35% in [7] (4 mg/kg), 77% in data set [7] (8 mg/kg) and 94% in data set [7] (setting [14]). Moreover, the “Number of Mice not Developing a Tumor (percent)” value in [7] (4 mg/kg) is on record as 5%; in [7] (8 mg/kg), 44%; in data set [7] (20 mg/kg), 89%; in data set [7] (100 mg/kg), 100^d percent.
